Tests used:
[1] = system: IL-17A-induced G-CSF production in human normal keratinocyte (NHK); experiment: NHK Assay: IL-17A-induced G-CSF production in human normal keratinocyte; assay type: cell-based; conditions: 24 h, IL-17A 5 ng/mL, simple average if tested more than once
Summary of the method: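 IC50 derives from G-CSF in supernatants, quantified by HTRF from a standard curve, with CellTiter-Glo viability compared to DMSO control. Before a 24 h, 37°C culture of normal human keratinocytes at 3000–4000 cells/well, compound dilutions were preincubated 1 h at rt with human IL-17A (5 ng/mL final), with 0.2% DMSO and 5% FBS.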

[2] = molecular target: T1, IL-17A(FLAG-Tagged): IL-17RA(His-Tagged) (Homo sapiens, UniProt Q16552, K93Q); experiment: IL-17A(FLAG-Tagged): IL-17RA(His-Tagged) Binding Disruption Eu-HTRF Assay, Protocol 2; conditions: Protocol 2, FLAG tagged IL-17A 1 nM; simple average if tested more than once
T1 sequence (Q16552 with tags, fused parts or gaps K93Q): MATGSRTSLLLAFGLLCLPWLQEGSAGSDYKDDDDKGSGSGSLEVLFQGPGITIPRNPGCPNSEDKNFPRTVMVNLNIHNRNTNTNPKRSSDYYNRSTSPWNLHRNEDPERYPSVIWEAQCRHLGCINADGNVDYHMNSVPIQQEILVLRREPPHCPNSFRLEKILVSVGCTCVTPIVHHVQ
Excerpt: An antibody directed against the FLAG tag of IL-17A (SEQ ID NO: 1) is labeled with the HTRF donor chromophore (Europium-cryptate). IL-17A is present as a dimer that is “locked into” this quaternary structure due to the formation of loop-spanning […] disulfide bridges. The construct of IL-17RA used in the assay excludes the […] portion of the receptor and is fused to a C-terminal 10×His tag (SEQ ID NO:2). An antibody directed against the His tag of the IL-17RA chimera is labeled with the HTRF acceptor chromophore (“D2”). The fluorescence-resonance energy transfer (FRET) depends on the vicinity of the donor chromophore to the acceptor, and interruption of the binding between the IL-17A and IL-17RA causes the reduction/loss of FRET. Therefore, this assay allows to evaluate the compound effect on the binding IL-17A and IL-17RA by monitoring the fluorescence intensity of donor vs acceptor. The assay was run using either Protocol 1 or Protocol 2 as described below.
Protocol 2. 40 nl of 2-fold serial diluted compound solution for total 22 dilution points is added into each well of a 1536-well, white, low-volume, non-binding plate (Greiner #782904), then 2 μl of FLAG tagged IL-17A at 2× final concentration (1 nM) in solution of PBS+0.01% Triton-X100 is added to each well. The assay plate is briefly centrifuged then incubated for 1 h at rt. A mixed solution is prepared containing 2×5 nM 10HIS×IL-17RA, 2×2.5 nM Eu-anti-FLAG (CISBIO), 2×5 nM D2-anti-HIS (CISBIO) in PBS+0.01% Triton-X100+200 mM Potassium Fluoride (Sigma 60238) and 2 μl of mix is added to each well of the assay plate. The plate is briefly centrifuged then incubated for 2 h at rt. The HTRF intensities at the wavelength of donor (615 nm) and acceptor (665 nm) are measured using BMG Pherastar. The ratio between intensities at two wavelengths is calculated and plotted against the compound concentration and the data is fitted to a one-site competition model to yield IC50 of the compound.

[3] = molecular target: T1, IL-17A(FLAG-Tagged): IL-17RA(His-Tagged); experiment: IL-17A(FLAG-Tagged): IL-17RA(His-Tagged) Binding Disruption Eu-HTRF Assay, Protocol 1; conditions: Protocol 1, FLAG tagged IL-17A 2.5 nM; simple average if tested more than once
Summary of the method: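 IC50 came from a one-site competition fit of the acceptor/donor (665/620 nm) HTRF ratio. His-tagged IL-17RA, Eu-anti-FLAG and D2-anti-His were added after a 1 h rt compound preincubation with FLAG-tagged IL-17A dimer in PBS/0.01% Triton X-100, followed by 2 h at rt before reading.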

SMILES	IC50 [2]	IC50 [3]	IC50 ([1]; Homo sapiens, Keratinocyte)	IC50 [1]
COC[C@H](c1ccc2nc(C(NC(=O)c3nonc3C3CC3)[C@@H](C)O[C@H](C)C(F)(F)F)[nH]c2c1F)N1C[C@@H](C(F)(F)F)NC1=O (single isomer, unassigned) [Example 95, 4-Cyclopropyl-N-((1R*,2R)-1-(7-fluoro-6-((S)-2-methoxy-1-((S)-2-oxo-4-(trifluoromethyl)imidazolidin-1-yl)ethyl)-1H-benzo[d]imidazol-2-yl)-2-(((R)-1,1,1-trifluoropropan-2-yl)oxy)propyl)-1,2,5-oxadiazole-3-carboxamide]	< 50 nM			< 50 nM
Cc1nonc1C(=O)N[C@@H](COC(C)(C)C(F)(F)F)c1nc2cc([C@@H](C3CC3)N3C[C@@H](C(C)C)NC3=O)ccc2[nH]1 [Example 83, N—((R)-1-(5-((R)-Cyclopropyl((R)-4-isopropyl-2-oxoimidazolidin-1-yl)methyl)-1H-benzo[d]imidazol-2-yl)-2-((1,1,1-trifluoro-2-methylpropan-2-yl)oxy)ethyl)-4-methyl-1,2,5-oxadiazole-3-carboxamide]	< 50 nM	< 50 nM	< 50 nM	
COC[C@H](c1ccc2nc(C(NC(=O)c3nonc3C)[C@@H](C)O[C@H](C)C(F)(F)F)[nH]c2c1F)N1C[C@@H](C(F)(F)F)NC1=O (single isomer, unassigned) [Example 96, N-((1S*,2R)-1-(7-Fluoro-6-((S)-2-methoxy-1-((S)-2-oxo-4-(trifluoromethyl)imidazolidin-1-yl)ethyl)-1H-benzo[d]imidazol-2-yl)-2-(((R)-1,1,1-trifluoropropan-2-yl)oxy)propyl)-4-methyl-1,2,5-oxadiazole-3-carboxamide]	50 to 100 nM		< 50 nM	
COC[C@H](c1ccc2[nH]c(C(NC(=O)c3nonc3C)[C@@H](C)OC(C)(C)C(F)(F)F)nc2c1)N1C[C@@H](C(F)(F)F)NC1=O (single isomer, unassigned) [Example 74, N-[(1R*,2R)-1-[5-[(1S)-2-Methoxy-1-[(4S)-2-oxo-4-(trifluoromethyl)imidazolidin-1-yl]ethyl]-1H-benzimidazol-2-yl]-2-(2,2,2-trifluoro-1,1-dimethyl-ethoxy)propyl]-4-methyl-1,2,5-oxadiazole-3-carboxamide]	< 50 nM		< 50 nM	
Cc1nonc1C(=O)N[C@H](c1nc2cc([C@@H](COC3CC3)N3CC(F)(F)CNC3=O)ccc2[nH]1)[C@@H](C)OC1CC1 [Example 73, N-((1R,2R)-2-Cyclopropoxy-1-(5-((S)-2-cyclopropoxy-1-(5,5-difluoro-2-oxotetrahydropyrimidin-1(2H)-yl)ethyl)-1H-benzo[d]imidazol-2-yl)propyl)-4-methyl-1,2,5-oxadiazole-3-carboxamide]	< 50 nM		< 50 nM	
Cc1nonc1C(=O)N[C@H](c1nc2cc([C@@H](COC3CC3)N3C[C@@H](C(F)(F)F)NC3=O)ccc2[nH]1)[C@@H](C)OC1CC1 [Example 70, N-((1R,2R)-2-Cyclopropoxy-1-(5-((S)-2-cyclopropoxy-1-((S)-2-oxo-4-(trifluoromethyl)imidazolidin-1-yl)ethyl)-1H-benzo[d]imidazol-2-yl)propyl)-4-methyl-1,2,5-oxadiazole-3-carboxamide]	< 50 nM		< 50 nM	
CC(C)n1ncc(F)c1C(=O)N[C@H](c1nc2cc([C@@H](COC3CC3)N3CC(F)(F)CNC3=O)ccc2[nH]1)[C@@H](C)OC1CC1 [Example 72, N-((1R,2R)-2-Cyclopropoxy-1-(5-((S)-2-cyclopropoxy-1-(5,5-difluoro-2-oxotetrahydropyrimidin-1(2H)-yl)ethyl)-1H-benzo[d]imidazol-2-yl)propyl)-4-fluoro-1-isopropyl-1H-pyrazole-5-carboxamide]	< 50 nM		50 to 100 nM	
COC[C@H](c1ccc2nc(C(NC(=O)c3nonc3C3CC3)[C@@H](C)O[C@H](C)C(F)(F)F)[nH]c2c1F)N1C[C@@H](C(F)(F)F)NC1=O (single isomer, unassigned) [Example 94, 4-Cyclopropyl-N-((1S*,2R)-1-(7-fluoro-6-((S)-2-methoxy-1-((S)-2-oxo-4-(trifluoromethyl)imidazolidin-1-yl)ethyl)-1H-benzo[d]imidazol-2-yl)-2-(((R)-1,1,1-trifluoropropan-2-yl)oxy)propyl)-1,2,5-oxadiazole-3-carboxamide]	< 50 nM		< 50 nM	
C[C@@H](OC1CC1)[C@H](NC(=O)c1nonc1C1CC1)c1nc2cc([C@@H](COC3CC3)N3C[C@@H](C(F)(F)F)NC3=O)ccc2[nH]1 [Example 69, N-((1R,2R)-2-Cyclopropoxy-1-(5-((S)-2-cyclopropoxy-1-((S)-2-oxo-4-(trifluoromethyl)imidazolidin-1-yl)ethyl)-1H-benzo[d]imidazol-2-yl)propyl)-4-cyclopropyl-1,2,5-oxadiazole-3-carboxamide]	< 50 nM		< 50 nM	

Continued, in another order:

IC50 [2]	IC50 [3]	SMILES	IC50 ([1]; Homo sapiens, Keratinocyte)	IC50 [1]
< 50 nM		C[C@@H](OC1CC1)[C@H](NC(=O)c1nonc1C1CC1)c1nc2cc([C@@H](COC3CC3)N3CC(F)(F)CNC3=O)ccc2[nH]1 [Example 71, N-((1R,2R)-2-Cyclopropoxy-1-(5-((S)-2-cyclopropoxy-1-(5,5-difluoro-2-oxotetrahydropyrimidin-1(2H)-yl)ethyl)-1H-benzo[d]imidazol-2-yl)propyl)-4-cyclopropyl-1,2,5-oxadiazole-3-carboxamide]	< 50 nM	
< 50 nM	< 50 nM	C[C@H](c1ccc2[nH]c(C(COC(C)(C)C(F)(F)F)NC(=O)c3nonc3C3CC3)nc2c1)N1C[C@@H](C(F)(F)F)NC1=O (single isomer, unassigned) [Example 7, 4-Cyclopropyl-N—((R*)-1-(5-((R)-1-((S)-2-oxo-4-(trifluoromethyl)imidazolidin-1-yl)ethyl)-1H-benzo[d]imidazol-2-yl)-2-((1,1,1-trifluoro-2-methylpropan-2-yl)oxy)ethyl)-1,2,5-oxadiazole-3-carboxamide]	< 50 nM	
< 50 nM	< 50 nM	COC[C@H](c1ccc2[nH]c(C(COC(C)(C)C(F)(F)F)NC(=O)c3ncnn3C(C)C)nc2c1)N1CC(F)(F)CNC1=O (single isomer, unassigned) [Example 52, N—((R*)-1-(5-((S)-1-(5,5-Difluoro-2-oxotetrahydropyrimidin-1(2H)-yl)-2-methoxyethyl)-1H-benzo[d]imidazol-2-yl)-2-((1,1,1-trifluoro-2-methylpropan-2-yl)oxy)ethyl)-1-isopropyl-1H-1,2,4-triazole-5-carboxamide]	< 50 nM	
< 50 nM		COC[C@H](c1ccc2nc(C(NC(=O)c3nonc3C)[C@@H](C)O[C@H](C)C(F)(F)F)[nH]c2c1F)N1C[C@@H](C(F)(F)F)NC1=O (single isomer, unassigned) [Example 97, N-((1R*,2R)-1-(7-Fluoro-6-((S)-2-methoxy-1-((S)-2-oxo-4-(trifluoromethyl)imidazolidin-1-yl)ethyl)-1H-benzo[d]imidazol-2-yl)-2-(((R)-1,1,1-trifluoropropan-2-yl)oxy)propyl)-4-methyl-1,2,5-oxadiazole-3-carboxamide]		< 50 nM
< 50 nM	< 50 nM	CC(C)(OC[C@H](NC(=O)c1nonc1C1CC1)c1nc2cc(CN3C[C@@H](C(F)(F)F)NC3=O)ccc2[nH]1)C(F)(F)F (single isomer, unassigned) [Example 17]	< 50 nM	

Source: patent US20250122181A1, “BENZIMIDAZOLES AS MODULATORS OF IL-17” (Janssen Pharmaceutica NV, priority 2021, published 2025)
